These results are taken from publication PMC8173604 (Cell, 2021).

“Also recorded” adds a separate entry of the source. Read-outs that look alike come from different tables or passages of the source.

The subject of test [1] is CD8+ T cells of HLA-B*07:02 subjects. Format: cell-based, human.
The next test addresses HLA-A*02:01 (Homo sapiens, UniProt P04439, D140Y/D185E/D98H/E176V/E277Q/G131W/G231S/I119V/I121R/I166T/I218V/L300P/L318F/N151K/N90K/P208A/P217A/Q86G/Q94H/R138H/R169H/T345S). It is filed as binding.
A further test has as its target HLA-A*26:01 (Homo sapiens, UniProt P04439, A114D/A173T/A270S/D101N/D185E/E277Q/E87N/F33Y/G231S/I121R/I218V/K168Q/L180W/L300P/L318F/P208A/P217A/Q86R/Q94H/R138Q/S129P/T187R/T323A/T345S/V100A/V358M). Format: binding.
In test [2] the test system is CD8+ T cells of HLA-A*02:01 subjects. Format: cell-based, human.
The test system of test [3] is CD8+ T cells of convalescent COVID-19 individuals. Particulars: ref Tarke et al., 2020; cited from earlier work.

For the sequence RPPIFIRRL, the “CD8+ T cell response (in words)” value in test [1] was “positive reactivity”.
Turning to ELPDEFVVVTV, the “binding to A*02:01 (in words)” value at HLA-A*02:01 was “binds”. Moreover, the “binding to A*26:01 (in words)” value on HLA-A*26:01 was “binds”. Further, the “CD8+ T cell response (in words)” value in test [2] (nine HLA-A*02:01 samples (seven COVID-19 convalescent and two unexposed)) was “top five reactive peptides; also recorded: strongest CD8+ response among all tested HLA-I peptides”.
Take KLWAQCVQL [reference compound]: the “CD8+ T cell response (in words)” value in test [2] is “weak responses”.
Take QLTPTWRVY: the “T cell responses in convalescent COVID-19 individuals expressing the predicted alleles” value in test [3] is reported as “elicit T cell responses”.
